# Laboratory results taken from patent US20170081338A1, “SUBSTITUTED HETEROARYL COMPOUNDS AND METHODS OF USE” (Sunshine Lake Pharma Co., Ltd., priority 2015, published 2017).
# Tests used:
# [1] = Pharmacokinetics after intravenous and oral administration in rats; type: in vivo; conditions: for Clearance (CL) after iv dosing / AUC(0-t) / half-life / Vd: dose 1 mg/kg, iv dosing; for F: oral bioavailability; for AUC(0-t) / half-life / Vd: rat, plasma; for Vd: read-out: Vss
# Method in brief: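 Compounds dosed IV at 0.5, 1 or 2 mg/kg and orally at 0.5, 1, 5 or 10 mg/kg in rats, as solution, suspension or capsule formulations. Serial blood sampled out to 24 h and plasma stored frozen. Plasma levels quantified by LC/MS/MS in ESI MRM mode.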
# Aurora-A (h) = molecular target: T1, Aurora-A (h) (Homo sapiens, UniProt O14965); experiment: Aurora-A (h) kinase assay; type: biochemical
# T1 construct: purchased Millipore UK Ltd (contract assay service)
# T1 sequence (O14965 1-403): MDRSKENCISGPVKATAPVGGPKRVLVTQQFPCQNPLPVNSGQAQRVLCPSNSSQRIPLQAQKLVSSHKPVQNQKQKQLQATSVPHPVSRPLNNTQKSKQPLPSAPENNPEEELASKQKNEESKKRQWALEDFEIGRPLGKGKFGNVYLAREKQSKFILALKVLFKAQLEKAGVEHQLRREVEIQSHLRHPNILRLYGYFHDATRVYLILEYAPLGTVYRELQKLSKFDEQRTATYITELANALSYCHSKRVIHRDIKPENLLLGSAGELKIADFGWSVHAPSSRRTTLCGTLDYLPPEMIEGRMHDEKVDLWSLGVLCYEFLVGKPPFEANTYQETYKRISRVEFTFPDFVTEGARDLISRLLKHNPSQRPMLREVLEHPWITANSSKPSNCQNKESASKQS
# Description: (§1) The above assay procedure can be used to determine the IC50 for inhibition and/or the inhibition constant, Ki. The IC50 is defined as the concentration of compound required to reduce the enzyme activity by 50% under the condition of the assay. The IC50 value is estimated by preparing a 10 point curve using a 1/2 log dilution series (for example, a typical curve may be prepared using the following compound concentrations: 3 μM, 1 μM, 0.3 μM, 0.1 μM, 0.03 μM, 0.01 μM, 0.003 μM, 0.001 μM, 0.0003 μM and 0 μM).
# (§2) Aurora-A (h) is incubated with 8 mM MOPS pH 7.0, 0.2 mM EDTA, 200 μM LRRASLG (Kemptide), 10 mM MgAcetate and [γ-^33P-ATP] (specific activity approx. 500 cpm/pmol, concentration as required). The reaction is initiated by the addition of the MgATP mix. After incubation for 40 minutes at room temperature, the reaction is stopped by the addition of 3% phosphoric acid solution. 10 μL of the reaction is then spotted onto a P30 filtermat and washed three times for 5 minutes in 75 mM phosphoric acid and once in methanol prior to drying and scintillation counting.
# (§3) The kinase assays described herein were performed at Millipore UK Ltd, Dundee Technology Park, Dundee DD2 1SW, UK.
# Aurora-B (h) = molecular target: T2, Aurora-B (h) (Homo sapiens, UniProt Q96GD4); experiment: Aurora-B (h) kinase assay; type: biochemical
# T2 construct: purchased Millipore UK Ltd (contract assay service)
# Description: (§4) Kinase assays can be performed by measurement of incorporation of γ-^33P ATP into immobilized myelin basic protein (MBP). High binding white 384 well plates (Greiner) are coated with MBP (Sigma #M-1891) by incubation of 60 μL/well of 20 μg/mL MBP in Tris-buffered saline (TBS; 50 mM Tris pH 8.0, 138 mM NaCl, 2.7 mM KCl) for 24 h at 4° C. Plates are washed 3× with 100 μL TBS. Kinase reactions are carried out in a total volume of 34 μL in kinase buffer (according to the need to make, for example, 5 mM Hepes pH 7.6, 15 mM NaCl, 0.01% bovine gamma globulin (Sigma #1-5506), 10 mM MgCl2, 1 mM DTT, 0.02% TritonX-100). Compound dilutions are performed in DMSO and added to assay wells to a final DMSO concentration of 1%. Each data point is measured in duplicate, and at least two duplicate assays are performed for each individual compound determination. Enzyme is added to final concentrations of 10 nM or 20 nM, for example. A mixture of unlabeled ATP and γ-^33P ATP is added to start the reaction (2×10^6 cpm of γ-^33P ATP per well (3000 Ci/mmole) and 10 μM unlabeled ATP, typically. The reactions are carried out for 1 h at room temperature with shaking. Plates are washed 7× with TBS, followed by the addition of 50 µL/well scintillation fluid (Wallac). Plates are read using a Wallac Trilux counter. This is only one format of such assays; various other formats are possible, as known to one skilled in the art.
# as §1
# Aurora-B (h) is incubated with 8 mM MOPS pH 7.0, 0.2 mM EDTA, 30 μM AKRRRLSSLRA, 10 mM MgAcetate and [γ-^33PATP] (specific activity approx. 500 cpm/pmol, concentration as required). The reaction is initiated by the addition of the MgATP mix. After incubation for 40 minutes at room temperature, the reaction is stopped by the addition of a 3% phosphoric acid solution. 10 μL of the reaction is then spotted onto a P30 filtermat and washed three times for 5 minutes in 75 mM phosphoric acid and once in methanol prior to drying and scintillation counting.
# as §3
# JAK1 (h) = molecular target: T3, JAK1 (h) (Homo sapiens, UniProt P23458); experiment: JAK1 (h) kinase assay; type: biochemical
# T3 construct: purchased Millipore UK Ltd (contract assay service)
# Description: as §4, §1
# as §2, with “JAK1” for “Aurora-A”, “20” for “8”, “Tris/HCl” for “MOPS”, “7.5,” for “7.0,”, “500” for “200”, “GEEPLYWSFPAKKK,” for “LRRASLG (Kemptide),”
# as §3
# T2 sequence (Q96GD4 whole entry): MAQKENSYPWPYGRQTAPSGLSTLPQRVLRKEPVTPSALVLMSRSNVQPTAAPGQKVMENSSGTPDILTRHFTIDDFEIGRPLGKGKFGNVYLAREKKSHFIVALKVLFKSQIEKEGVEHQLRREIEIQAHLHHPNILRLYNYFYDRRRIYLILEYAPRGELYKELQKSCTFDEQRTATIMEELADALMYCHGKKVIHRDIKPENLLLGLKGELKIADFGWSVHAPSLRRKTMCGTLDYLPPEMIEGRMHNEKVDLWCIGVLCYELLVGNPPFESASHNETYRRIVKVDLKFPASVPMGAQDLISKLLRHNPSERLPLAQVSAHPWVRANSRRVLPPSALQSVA
# T3 sequence (P23458 whole entry): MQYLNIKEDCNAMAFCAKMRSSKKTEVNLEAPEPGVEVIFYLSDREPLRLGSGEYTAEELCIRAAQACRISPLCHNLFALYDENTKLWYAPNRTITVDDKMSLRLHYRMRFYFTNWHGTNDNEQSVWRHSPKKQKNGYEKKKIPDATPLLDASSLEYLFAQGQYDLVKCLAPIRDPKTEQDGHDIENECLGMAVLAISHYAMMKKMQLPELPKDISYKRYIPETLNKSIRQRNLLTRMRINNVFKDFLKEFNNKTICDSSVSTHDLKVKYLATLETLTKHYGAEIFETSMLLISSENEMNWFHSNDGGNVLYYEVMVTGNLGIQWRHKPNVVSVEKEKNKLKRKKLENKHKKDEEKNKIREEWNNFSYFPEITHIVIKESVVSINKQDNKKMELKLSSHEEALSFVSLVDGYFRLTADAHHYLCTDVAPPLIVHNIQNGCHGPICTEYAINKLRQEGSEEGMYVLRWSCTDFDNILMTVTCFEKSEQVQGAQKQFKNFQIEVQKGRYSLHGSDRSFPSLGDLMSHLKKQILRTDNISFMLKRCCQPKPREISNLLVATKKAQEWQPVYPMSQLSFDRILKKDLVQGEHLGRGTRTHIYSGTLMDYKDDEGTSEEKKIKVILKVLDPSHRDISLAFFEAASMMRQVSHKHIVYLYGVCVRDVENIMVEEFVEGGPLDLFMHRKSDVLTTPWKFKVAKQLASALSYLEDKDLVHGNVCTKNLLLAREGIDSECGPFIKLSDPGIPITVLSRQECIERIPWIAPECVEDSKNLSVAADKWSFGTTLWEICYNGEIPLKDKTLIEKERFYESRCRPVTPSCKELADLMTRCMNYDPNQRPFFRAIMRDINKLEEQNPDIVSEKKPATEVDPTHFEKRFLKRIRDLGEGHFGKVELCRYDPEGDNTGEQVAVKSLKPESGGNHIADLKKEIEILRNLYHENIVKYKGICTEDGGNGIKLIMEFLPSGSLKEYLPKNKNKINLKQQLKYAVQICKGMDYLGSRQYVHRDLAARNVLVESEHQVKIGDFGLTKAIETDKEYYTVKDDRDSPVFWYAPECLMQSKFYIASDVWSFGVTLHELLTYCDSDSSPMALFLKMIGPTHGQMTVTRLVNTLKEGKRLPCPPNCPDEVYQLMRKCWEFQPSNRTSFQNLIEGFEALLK
Structure (SMILES),Clearance (CL) after iv dosing [1] [mL/min/kg],F [1] [%],AUC(0-t) [1] [ng·h/mL],half-life [1] [min],Vd [1] [L/kg],IC50 (Aurora-A (h)) [nM],IC50 (Aurora-B (h)) [nM],IC50 (JAK1 (h)) [nM]
"Cn1cc(Nc2ncc(Cl)c(N[C@@H]3COC4C3OC[C@@H]4NS(=O)(=O)CC3CCCC3)n2)cn1 (stereo partly drawn) [Ex. 21, N-((3S,6R)-6-((5-chloro-2-((1-methyl-1H-pyrazol-4-yl)amino)pyrimidin-4-yl)amino)hexahydrofuro[3,2-b]furan-3-yl)-1-cyclopentylmethanesulfonamide]",24.8,63.7,680,18,0.69,2,6,24
"Cn1cc(Nc2ncc(Cl)c(N[C@@H]3COC4C3OC[C@@H]4NS(=O)(=O)CC(C)(C)C)n2)cn1 (stereo partly drawn) [Ex. 30, N-((3S,6R)-6-((5-chloro-2-((1-methyl-1H-pyrazol-4-yl)amino)pyrimidin-4-yl)amino)hexahydrofuro[3,2-b]furan-3-yl)-2,2-dimethylpropane-1-sulfonamide]",24.2,67.4,696,37.8,0.82,17,8,
"Cn1cc(Nc2ncc(Cl)c(N[C@@H]3COC4C3OC[C@@H]4NS(=O)(=O)CC3CCC3)n2)cn1 (stereo partly drawn) [Ex. 31, N-((3S,6R)-6-((5-chloro-2-((1-methyl-1H-pyrazol-4-yl)amino)pyrimidin-4-yl)amino)hexahydrofuro[3,2-b]furan-3-yl)-1-cyclobutylmethanesulfonamide]",18.8,88.1,947,37.2,0.71,12,18,

# Continued by falling IC50 (Aurora-A (h)), values first:
Clearance (CL) after iv dosing [1] [mL/min/kg],F [1] [%],AUC(0-t) [1] [ng·h/mL],half-life [1] [min],Vd [1] [L/kg],IC50 (Aurora-A (h)) [nM],IC50 (Aurora-B (h)) [nM],IC50 (JAK1 (h)) [nM],Structure (SMILES)
,28.9,1540,37.8,1.23,24,21,,"Cn1cc(Nc2ncc(Cl)c(N[C@@H]3COC4C3OC[C@@H]4NS(=O)(=O)CC3CCCO3)n2)cn1 (stereo partly drawn) [Ex. 34, N-((3S,6R)-6-((5-chloro-2-((1-methyl-1H-pyrazol-4-yl)amino)pyrimidin-4-yl)amino)hexahydrofuro[3,2-b]furan-3-yl)-1-(tetrahydrofuran-2-yl)methanesulfonamide]"
23.2,53.6,725,17.4,0.57,18,25,,"CCC(C)CS(=O)(=O)N[C@H]1COC2C1OC[C@H]2Nc1nc(Nc2cnn(C)c2)ncc1Cl (stereo partly drawn) [Ex. 33, N-((3S,6R)-6-((5-chloro-2-((1-methyl-1H-pyrazol-4-yl)amino)pyrimidin-4-yl)amino)hexahydrofuro[3,2-b]furan-3-yl)-2-methylbutane-1-sulfonamide]"
